# Reference: patent US20060105023A1, “Treatment of neurological disorders with nicotine” (priority 2001, published 2006)
# Tests used:
# [1] = within six hours, at a half life of about 60 minutes
# Description: It should be kept in mind that nicotine is a toxic compound. Therefore, only the minimum amount required for relief from smoking addiction or migraine symptoms should be used. […] Fortunately, nicotine is metabolized fairly rapidly.
# adult = conditions: absorbed in one dose; cited from earlier work
# [2] = people with average metabolic capacity for the compound; cited from earlier work
smiles,measurement,setting,value
CN1CCCC1c1cccnc1 (stereo not drawn) [nicotine],amount remaining of one mg of nicotine absorbed in the body,[1],about 0.031 mg
same,lethal dose,adult,Sixty
same,half life,[2],about 60 minutes
